Entries after “also recorded” stand apart in the source; their conditions may differ. Like-named read-outs stand apart in the source and are kept apart here.
Key:
[1] = First-in-human study: plasma pharmacokinetics in healthy subjects; format: in vivo; conditions: for median lag time: fed; for half-life: read-out: mean t1/2 (converted); for Tmax: read-out: median tmax; for CL renal: urine, read-out: Renal clearance (converted); for dose proportionality of exposure: single doses
From the text: The study design comprised of 4 parts: single ascending dose (SAD; Part A), relative bioavailability of tablet formulations (Part B), multiple ascending dose (MAD; Part C), and relative bioavailability and food effect (Part D) (FIG. 2; RF=Reference Formulation (crystalline suspension); T2=Test Formulation 2 (crystalline tablet); T3=Test Formulation 3 (spray-dried dispersion suspension); T4=Test Formulation 4 (encapsulated crystalline tablet)). In each group of Parts A and C, 8 subjects were randomized in a 3:1 ratio to receive Compound IA (6 subjects) or matching placebo (2 subjects).
For Part A, eight cohorts of eight eligible subjects were enrolled. Each subject received a single oral dose of Compound IA (3, 10, 30, 100, 300 mg of crystalline suspension and 100, 300, 600 mg of spray-dried dispersion (SDD) under fasted conditions. As this was a FIH study, two sentinel subjects were dosed first, at least 24 hours before the rest of the cohort was dosed, to assure maximum safety. Part B was skipped because the data from Part A provided for an adequate comparison of crystalline and SDD formulations.
For part C, eligible subjects were enrolled in six different cohorts. […] Subjects were dosed in Part C following review available safety, tolerability and PK data from preceding groups in Part A.
[…] […] Based on these doses, subjects were randomly assigned to 1 of 6 treatment sequences (1 subject per sequence) prepared using Williams design.
In single-dose part, blood samples were collected for determining the concentrations of Compound IA at the following time points relative to dosing on Day 1: at pre-dose and 0.25, 0.5, 0.75, 1, 1.5, 2, 3, 4, 6, 8, 12, 24, 36, and 48 hours post-dose, and at the follow-up visit. In multiple-dose part, relative to dosing on Days 1 and 14, samples were collected at pre-dose and 0.25, 0.5, 0.75, 1, 1.5, 2, 3, 4, 6, 8, and 12 hours post-dose; on Days 2, 4, 7, 9, and 11: at pre-dose; after the last dose on Day 14: at 24 and 36 hours (Day 15), and 48 hours (Day 16) post-dose; and at the follow-up visit.
All data were summarized using descriptive statistics and were listed and summarized in tabular and/or graphical form. Descriptive statistics for all relevant PK parameters included: n, arithmetic mean, standard deviation (SD), coefficient of variation (CV %), minimum, median, maximum, geometric mean, and geometric CV %. For tmax only median, minimum, and maximum are presented. PK parameters were calculated using noncompartmental methods using software Phoenix Version 8.1. Concentrations below the lower limit of quantification (LLOQ) were treated as zero in summary statistics for concentration data only. The linear trapezoidal rule was used for AUC calculation. Regression analysis of the terminal plasma elimination phase for the determination of t1/2 included at least 3 data points after Cmax. Parameters with an adjusted r^2 below 0.80 were flagged but included in the descriptive statistics. The parameters AUC0-inf, % AUCextra, CL/F, and VZ/F with an % AUCextra above 20% were excluded from the descriptive statistics.
In Part A, dose proportionality was explored using a regression power model relating logarithmically (log)-transformed Cmax, AUC0-last, and AUC0-inf to the log-transformed dose level. Point estimates for the intercept and the slope and corresponding 90% confidence intervals (CIs) for the slope were calculated. For Part C, dose proportionality was not explored. In Part D, the relative bioavailability of the Test Formulation (crystalline tablet, SDD and crystalline tablet) versus the Reference Formulation (crystalline suspension), as well as the effect of food, was explored using an analysis of variance (ANOVA) model on the PK data.
For the following treatments, the least-squares geometric mean ratios were presented together with 90% CIs: 100 mg Compound IA tablet fasted over 100 mg Compound IA suspension fasted, and 100 mg Compound IA tablet fed over 100 mg Compound IA tablet fasted.

[2] = test system: ex-vivo stimulated IL-1β release in whole blood; test: First-in-human study: ex-vivo LPS stimulation of whole blood, IL-1β release (PD); format: cell-based
Method: To determine the PD response to NLRP3 inhibition, whole blood samples were collected for exploratory PD analysis (Part A and Groups 1-3 of Part C). An ex-vivo stimulation by activating the NLRP3 inflammasome with lipopolysaccharide (LPS) was evaluated compared to control conditions, followed by analysis of blood cell release of the inflammatory marker IL-1β.
Combined individual and mean plots of the individual IL-1β concentrations versus time are presented by treatment. Modeling of Compound IA effects on a corrected, stimulated ex vivo Lipopolysaccharide (LPS) challenge in whole blood included evaluation of the relationship between LPS challenge results by conditionally weighted residual modeling.

[3] = in vivo
Method: (§1) The safety of the treatment period is supported by 13-week GLP toxicology studies in rat and cynomolgus monkey. […] Safety margins for COMPOUND IA dosed at 25 mg b.i.d. based on 13-week GLP toxicology studies: […]

in vivo = conditions: cynomolgus monkey
Method: as §1

[4] = single dose 100 mg, crystalline suspension
[5] = fractional Emax model with Hill coefficient

CC(C)(O)c1ncc([S@](N)(=O)=NC(=O)Nc2c3c(cc4c2CCC4)CCC3)s1 [Compound IA, (R)-N′-((1,2,3,5,6,7-hexahydro-s-indacen-4-yl)carbamoyl)-2-(2-hydroxypropan-2-yl) thiazole-5-sulfonimidamide]
increase of AUC, fed (high-fat, high-calorie meal) vs fasted ([1]; 100 mg crystalline tablet): 1.49 fold | increase of Cmax, fed (high-fat, high-calorie meal) vs fasted ([1]; 100 mg crystalline tablet): 2.05 fold | Cmax lower for crystalline tablet than suspension ([1]; 100 mg, fasted): 78% | multiple dose PK ([1]; after 2 weeks, multiple doses and formulations): linear | absorption of crystalline material ([1]; doses≥100 mg): solubility-limited absorption | median lag time ([1]; encapsulated crystalline tablets 25 mg bid): 0.75 h | median lag time ([1]; encapsulated crystalline tablets 50 mg bid): 0.25 h | AUCs of subjects with heterogenous CYP2C9 genotypes versus normal CYP2C9 activity ([1]; human, in vivo): higher | oral clearance relative to human liver blood flow ([1]; human, in vivo, po): ≤ 2% | renal elimination as share of oral dose ([1]; human, in vivo, po): less than 0.8% | half-life ([1]; human, plasma, oral, 100 mg, suspension formulation): 1060 min | half-life ([1]; human, plasma, oral, across QD and BID dose levels): 590 to 972 min | Vd/F ([1]; human, plasma, oral, steady state, across QD and BID dose levels, read-out: Vss/F): 12.6 to 23.3 L | Tmax ([1]; human, plasma, po, single oral doses 30-600 mg, fasted): 1.5 to 3 h | Tmax ([1]; human, plasma, po, single oral doses of suspensions, fasted, across dose levels): 0.76 to 3 h | CL renal ([1]; human, oral, Day 1): ~0.0667 mL/min | CL renal ([1]; human, oral, steady state (Day 14)): ~0.133 mL/min | drug accumulation in reaching steady state ([1]; once daily dosing): about 1.2 fold | increase of AUC0-last, fed compared to fasted [1, 4]: 1.49 fold | increase of Cmax, fed compared to fasted [1, 4]: 2.05 fold | dose proportionality of exposure ([1]; SDD suspension 100-600 mg, fasted): dose-proportionally; also recorded: dose-proportional increase | dose proportionality of exposure ([1]; crystalline suspension 3-300 mg, fasted): less than dose-proportional | median tmax ([1]; single oral doses of suspensions, fasted, across dose levels): 45.6 to 180 min | CLss/F ([1]; steady state, across QD and BID dose levels): ~1.0 L/h | drug accumulation in reaching steady state ([1]; twice daily dosing): 2 fold | IC90 ([2]; Homo sapiens, LPS challenge, median, 90% CI 2.84, 3.54, read-out: IC90, inhibiting 90% of ex-vivo stimulated IL-1β release): 3.18 µM | IC50 ([2]; Homo sapiens, relative to 100% inhibition, 90% CI 0.118, 0.179): 146 nM | EC50 ([2]; Homo sapiens, relative to estimated maximum effect, 90% CI 0.114, 0.171): 141 nM | EC90 ([2]; Homo sapiens, relative to estimated maximum effect, 90% CI 2.24, 2.94): 2570 nM | Emax of IL-1β, arithmetic mean (±SD) [2, 5]: −0.985 (±0.00277) | observed stimulation effect of IL-1β, arithmetic mean (±SD) [2, 5]: 1820 (±102) ng/L | time after dosing from which inhibition of IL-1β was observed ([2]; most dose levels): 1 h | concentrations of IL-1β with increasing doses ([2]; single and multiple oral doses): dose-dependent decreases | Exposure multiples RAT NOAEL based on AUC0-24 h [3]: 14 | Exposure multiples RAT NOAEL based on Cmax [3]: 34 | Exposure multiples RAT NOAEL based on AUC0-24 h ([3]; 25 mg): 7 | Exposure multiples RAT NOAEL based on Cmax ([3]; 25 mg): 17 | Exposure multiples MONKEY NOAEL based on AUC0-24 h (in vivo): 49 | Exposure multiples MONKEY NOAEL based on Cmax (in vivo): 66 | NOAEL at 13 weeks (in vivo): 150 mg/kg/day | Exposure multiples MONKEY NOAEL based on AUC0-24 h (in vivo; 25 mg): 61 | Exposure multiples MONKEY NOAEL based on Cmax (in vivo; 25 mg): 82

Reference: patent US20250082611A1, “DOSING REGIMEN FOR AN NLRP3 INHIBITOR IN THE TREATMENT OF OSTEOARTHRITIS” (Novartis AG, priority 2021, published 2025)
